# Results from patent EP1382597A2, “Steroid receptor modulator compounds and methods” (LIGAND PHARMACEUTICALS, INC., priority 1994, dated 1996).
# What was measured:
# [1] = target: T1, ER (Homo sapiens, UniProt P03372); experiment: Co-transfection assay, ER antagonist activity; assay type: cell-based; conditions: for ER Antagonist CV-1 Cells Efficacy (%): percent maximal inhibition, estradiol at its EC50
# T1 construct: expressed in transfected cells; host or cells: CV-1 cells, transient transfection, with MTV-ERE5-LUC reporter
# [2] = target: T2, AR (Homo sapiens, UniProt P10275); experiment: Co-transfection assay, AR agonist activity; assay type: cell-based
# T2 construct: expressed in transfected cells; host or cells: CV-1 cells, transient transfection
# [3] = target: T2, AR; experiment: Co-transfection assay, AR antagonist activity; assay type: cell-based
# [4] = target: T3, human PR-B (Homo sapiens, UniProt P06401); experiment: Co-transfection assay, PR agonist activity; assay type: cell-based;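 note: CV-1 cells (African green monkey kidney) co-transfected with receptor plasmid and hormone-responsive firefly luciferase reporter, agonism read as compound-dependent rise in luciferase signal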
# T3 construct: expressed in transfected cells; host or cells: CV-1 cells (African green monkey kidney fibroblasts), transient transfection
# T3 sequence (P06401 1-933): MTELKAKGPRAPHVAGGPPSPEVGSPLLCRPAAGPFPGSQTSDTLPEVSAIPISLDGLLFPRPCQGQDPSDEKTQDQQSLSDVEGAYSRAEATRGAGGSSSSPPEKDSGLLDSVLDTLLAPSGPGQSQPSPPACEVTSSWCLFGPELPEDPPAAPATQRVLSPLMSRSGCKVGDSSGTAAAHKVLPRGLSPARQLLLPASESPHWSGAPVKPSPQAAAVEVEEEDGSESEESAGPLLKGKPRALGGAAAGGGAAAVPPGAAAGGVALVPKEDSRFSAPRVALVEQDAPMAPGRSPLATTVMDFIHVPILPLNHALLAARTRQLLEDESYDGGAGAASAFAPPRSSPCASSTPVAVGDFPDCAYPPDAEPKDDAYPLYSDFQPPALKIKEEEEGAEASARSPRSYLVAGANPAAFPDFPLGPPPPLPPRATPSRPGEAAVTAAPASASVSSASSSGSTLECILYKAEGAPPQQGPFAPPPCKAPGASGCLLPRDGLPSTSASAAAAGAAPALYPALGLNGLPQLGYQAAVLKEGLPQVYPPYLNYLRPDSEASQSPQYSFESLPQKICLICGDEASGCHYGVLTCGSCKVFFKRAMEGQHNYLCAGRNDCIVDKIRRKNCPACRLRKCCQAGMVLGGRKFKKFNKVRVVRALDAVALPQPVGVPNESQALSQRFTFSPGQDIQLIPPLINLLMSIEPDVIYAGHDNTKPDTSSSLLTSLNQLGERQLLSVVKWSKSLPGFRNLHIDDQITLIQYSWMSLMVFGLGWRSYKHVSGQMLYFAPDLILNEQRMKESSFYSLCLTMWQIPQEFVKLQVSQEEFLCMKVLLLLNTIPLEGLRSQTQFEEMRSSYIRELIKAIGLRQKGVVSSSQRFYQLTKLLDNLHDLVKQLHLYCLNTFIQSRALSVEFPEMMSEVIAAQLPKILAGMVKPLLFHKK
# [5] = target: T3, human PR-B; experiment: Co-transfection assay, PR antagonist activity; assay type: cell-based;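 note: monkey kidney fibroblasts co-transfected with receptor expression plasmid and hormone-responsive luciferase reporter, antagonism read as reduced luciferase signal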
# [6] = target: T4, AR (Rattus norvegicus, UniProt P15207); experiment: Immature castrated male rat model (antiandrogen activity); assay type: in vivo, rats (Sprague-Dawley); conditions: for %SV growth / %VP growth: 0 mg TP = 100; for SV (wet wt): seminal vesicles
# T4 construct: from tissue; host or cells: live Sprague-Dawley rats; ventral prostate and seminal vesicles weighed
# T4 sequence (P15207 1-902): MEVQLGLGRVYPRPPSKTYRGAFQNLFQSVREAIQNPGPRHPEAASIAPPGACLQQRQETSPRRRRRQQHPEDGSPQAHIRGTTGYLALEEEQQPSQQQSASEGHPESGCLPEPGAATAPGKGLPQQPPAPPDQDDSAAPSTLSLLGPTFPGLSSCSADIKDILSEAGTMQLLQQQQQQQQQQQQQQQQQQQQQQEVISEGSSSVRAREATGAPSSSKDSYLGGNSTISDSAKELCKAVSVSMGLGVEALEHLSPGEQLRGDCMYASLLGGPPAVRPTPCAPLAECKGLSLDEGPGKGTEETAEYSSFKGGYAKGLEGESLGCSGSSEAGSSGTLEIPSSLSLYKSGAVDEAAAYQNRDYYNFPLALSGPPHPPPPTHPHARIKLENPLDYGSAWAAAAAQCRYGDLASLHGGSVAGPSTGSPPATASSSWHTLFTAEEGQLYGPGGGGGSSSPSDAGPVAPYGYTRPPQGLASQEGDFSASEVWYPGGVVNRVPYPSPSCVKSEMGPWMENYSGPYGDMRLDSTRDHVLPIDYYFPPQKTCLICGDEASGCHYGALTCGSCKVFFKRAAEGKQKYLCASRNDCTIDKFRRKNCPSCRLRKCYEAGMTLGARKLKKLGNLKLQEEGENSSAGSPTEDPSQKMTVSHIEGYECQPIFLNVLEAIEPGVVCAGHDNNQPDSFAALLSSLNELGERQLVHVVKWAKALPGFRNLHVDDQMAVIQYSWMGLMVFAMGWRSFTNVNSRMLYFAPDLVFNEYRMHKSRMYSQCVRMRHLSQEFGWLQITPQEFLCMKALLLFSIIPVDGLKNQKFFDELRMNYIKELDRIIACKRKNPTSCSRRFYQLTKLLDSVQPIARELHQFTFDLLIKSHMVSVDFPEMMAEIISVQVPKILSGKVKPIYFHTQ
# Excerpt: Since the male sex organs are the tissues most responsive to modulation of androgen activity, this model is used to determine the androgen-dependent growth of the sex accessory organs in immature castrated rats.
# At the end of the 3-day treatment, the animals were sacrificed, and the ventral prostates (VP) and seminal vesicles (SV) were collected and weighed. To compare data from different experiments, the sexual organ weights were first standardized as mg per 100 g of body weight, and the increase in organ weight induced by TP was considered as the maximum increase (100%). Super-anova (one factor) was used for statistical analysis.
# [7] = CV-1 cells; relative to reference agonist DHT
# [8] = CV-1 cells; percent maximal inhibition, DHT at its EC50
# [9] = CV-1, read-out: AR Agonist CV-1 Cells Efficacy (%)
# [10] = CV-1, read-out: AR Antagonist CV-1 Cells Efficacy (%)
# [11] = 0.01 mg TP once daily for 3 days
# [12] = 0.03 mg TP once daily for 3 days
# [13] = 0.1 mg TP once daily for 3 days
# [14] = 0.3 mg TP once daily for 3 days
# T1 sequence (P03372 whole entry): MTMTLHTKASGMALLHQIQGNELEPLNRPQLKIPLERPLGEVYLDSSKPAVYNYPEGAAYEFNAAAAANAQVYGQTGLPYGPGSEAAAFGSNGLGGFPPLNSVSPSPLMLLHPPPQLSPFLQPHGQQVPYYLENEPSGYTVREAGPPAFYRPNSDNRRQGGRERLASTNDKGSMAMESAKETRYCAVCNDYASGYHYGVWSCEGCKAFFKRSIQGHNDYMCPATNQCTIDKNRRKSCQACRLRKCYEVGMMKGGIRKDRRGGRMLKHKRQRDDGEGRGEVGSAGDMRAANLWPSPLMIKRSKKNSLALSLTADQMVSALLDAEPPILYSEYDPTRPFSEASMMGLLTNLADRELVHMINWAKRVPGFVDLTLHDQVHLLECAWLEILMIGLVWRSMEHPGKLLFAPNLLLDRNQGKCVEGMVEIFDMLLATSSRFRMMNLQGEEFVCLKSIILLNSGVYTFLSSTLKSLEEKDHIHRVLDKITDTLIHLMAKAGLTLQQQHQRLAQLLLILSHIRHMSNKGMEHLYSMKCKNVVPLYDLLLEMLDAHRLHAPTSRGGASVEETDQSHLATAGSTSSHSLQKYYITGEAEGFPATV
# T2 sequence (P10275 whole entry): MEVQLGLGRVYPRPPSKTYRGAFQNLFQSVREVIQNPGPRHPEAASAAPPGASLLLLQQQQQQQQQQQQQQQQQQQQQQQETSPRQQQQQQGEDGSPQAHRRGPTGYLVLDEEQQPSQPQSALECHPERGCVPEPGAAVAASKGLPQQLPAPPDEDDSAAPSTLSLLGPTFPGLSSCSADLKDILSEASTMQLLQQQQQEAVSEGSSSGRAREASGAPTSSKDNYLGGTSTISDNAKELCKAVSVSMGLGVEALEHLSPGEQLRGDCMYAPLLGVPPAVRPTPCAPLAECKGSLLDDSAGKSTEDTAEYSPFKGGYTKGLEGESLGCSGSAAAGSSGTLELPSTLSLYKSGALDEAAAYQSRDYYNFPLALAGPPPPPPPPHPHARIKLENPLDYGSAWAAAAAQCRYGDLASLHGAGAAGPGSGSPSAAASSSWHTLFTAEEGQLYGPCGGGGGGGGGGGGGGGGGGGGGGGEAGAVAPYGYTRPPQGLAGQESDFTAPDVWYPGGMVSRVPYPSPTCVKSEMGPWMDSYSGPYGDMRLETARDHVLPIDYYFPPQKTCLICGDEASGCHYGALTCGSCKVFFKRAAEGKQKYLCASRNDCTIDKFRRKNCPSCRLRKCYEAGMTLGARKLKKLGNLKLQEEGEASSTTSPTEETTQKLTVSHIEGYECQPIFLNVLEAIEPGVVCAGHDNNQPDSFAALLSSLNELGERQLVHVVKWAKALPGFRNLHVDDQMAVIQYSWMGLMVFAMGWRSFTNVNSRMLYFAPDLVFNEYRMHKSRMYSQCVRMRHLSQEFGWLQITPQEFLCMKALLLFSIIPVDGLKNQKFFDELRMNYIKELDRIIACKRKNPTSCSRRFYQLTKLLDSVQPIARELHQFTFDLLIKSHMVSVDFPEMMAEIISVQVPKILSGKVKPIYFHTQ
smiles,measurement,setting,value
"COc1cccc(C2Oc3ccccc3-c3ccc4c(c32)C(C)=CC(C)(C)N4)c1 (racemic) [Compound 194, (R/S)-1,2-Dihydro-5-(3-methoxyphenyl)-2,2,4-trimethyl-5H-chromeno[3,4-f]quinoline]",IC50,[1],390 nM
same,ER Antagonist CV-1 Cells Efficacy (%),[1],94%
"O=c1cc(C(F)(F)F)c2cc3c(cc2[nH]1)NCC3 [Compound 419, 5-Trifluoromethyl-7-pyridono[5,6-e]indoline]",AR Agonist CV-1 Cells Efficacy (%),[2]; [7],29%
same,AR Antagonist CV-1 Cells Efficacy (%),[3]; [8],74%
"CC1=CC(C)(C)N(C)c2cc3oc(=O)cc(C(F)(F)F)c3cc21 [Compound 265, 1,2-Dihydro-1,2,2,4-tetramethyl-6-trifluoromethyl-8-pyranono[5,6-g]quinoline]",Emax,[2]; [9],< 20%
same,Emax,[3]; [10],78%
"CC1=CC(C)(C)Nc2cc3oc(=O)cc(C(F)(F)C(F)(F)F)c3cc21 [Compound 256, 1,2-Dihydro-2,2,4-trimethyl-6-(1,1,2,2,2-pentafluoroethyl)-8-pyranono[5,6-g]quinoline]",Emax,[2]; [9],< 20%
same,Emax,[3]; [10],91%
"CC1=CC(C)(C)Nc2ccc3c(c21)C(c1cccc(F)c1)Oc1ccccc1-3 (racemic) [Compound 191, (R/S)-5-(3-Fluorophenyl)-1,2-dihydro-2,2,4-trimethyl-5H-chromeno[3,4-f]quinoline]",Emax,"[4]; CV-1, read-out: PR Agonist CV-1 Cells Efficacy (%)",26%
same,Emax,"[5]; CV-1, read-out: PR Antagonist CV-1 Cells Efficacy (%)",74%
same,IC50,[3],520 nM
same,IC50,[1],330 nM
same,ER Antagonist CV-1 Cells Efficacy (%),[1],93%
"CC1C(=O)C(C)(C)Nc2cc3[nH]c(=O)cc(C(F)(F)F)c3cc21 (racemic) [Compound 418, (R/S)-1,2,3,4-tetrahydro-6-trifluoromethyl-2,2,4-trimethyl-8-pyridono[5,6-f]-3-quinolinone]",Emax,[2]; [9],< 20%
same,Emax,[3]; [10],63%
"CC1CC(C)(C)Nc2cc3oc(=O)cc(-c4ccoc4)c3cc21 (racemic) [Compound 405, (R/S)-5-(3-Furyl)-1,2,3,4-tetrahydro-2,2,4-trimethyl-8-pyranono[5,6-g]quinoline]",Emax,[2]; [9],< 20%
same,Emax,[3]; [10],89%
"CC1(C)CNc2cc3[nH]c(=O)cc(C(F)(F)F)c3cc2C1 [Compound 437, 1,2,3,4-Tetrahydro-3,3-dimethyl-6-trifluoromethyl-8-pyridono[5,6-g]quinoline]",Emax,[2]; CV-1; read-out: AR Agonist CV-1 Cells Efficacy (%),< 20%
same,Emax,[3]; CV-1; read-out: AR Antagonist CV-1 Cells Efficacy (%),72%
"CCC1CCNc2cc3oc(=O)cc(C(F)(F)F)c3cc21 (racemic) [Compound 414, (R/S)-4-Ethyl-1,2,3,4-tetrahydro-6-trifluoromethyl-8-pyranono[5,6-g]quinoline]",Emax,[2]; [9],118%
same,Emax,[3]; [10],< 20%
"CC1=CC(C)(C)Nc2cc3oc(=O)cc(C(F)(F)F)c3cc21 [Compound 238, 1,2-Dihydro-2,2,4-trimethyl-6-trifluoromethyl-8-pyranono[5,6-g]quinoline]",Emax,[2]; [9],96%
same,Emax,[3]; [10],< 20%
"CC1CC(C)(C)Nc2cc3[nH]c(=O)cc(C(F)(F)F)c3cc21 (racemic) [Compound 260, 1,2,3,4-Tetrahydro-2,2,4-trimethyl-6-trifluoromethyl-8-pyridono[5,6-g]quinoline]",EC50,[4],> 10000 nM
same,IC50,[5],230 nM
same,AR Antagonist CV-1 Cells Efficacy (%),[3]; [8],53%
"CC1=CC(C)(C)Nc2cc3[nH]c(=O)cc(C(F)(F)F)c3cc21 [Compound 247, 1,2-Dihydro-2,2,4-trimethyl-6-trifluoromethyl-8-pyridono[5,6-g]quinoline]",AR Agonist CV-1 Cells Efficacy (%),[2]; [7],23%
same,AR Antagonist CV-1 Cells Efficacy (%),[3]; [8],69%
"CCC(=O)O[C@H]1CC[C@H]2[C@@H]3CCC4=CC(=O)CC[C@]4(C)[C@H]3CC[C@]12C [TP, Testosterone Propionate]",%SV growth,[6]; [11],165.1%
same,%VP growth,[6]; [11],146.5%
same,VP (wet wt),"[6]; 0.01 mg TP once daily for 3 days, castrated immature rats, ventral prostate (organ weights standardized as mg per 100 g body weight)",15.4±0.6
same,SV (wet wt),[6]; [11],12.3±0.8
same,%SV growth,[6]; [12],369.5%
same,%VP growth,[6]; [12],224.1%
same,SV (wet wt),[6]; [12],27.5±0.8
same,VP (wet wt),"[6]; 0.03 mg TP once daily for 3 days, ventral prostate",23.5±1.3
same,SV (wet wt),[6]; 0.1 mg TP once daily for 3 days (Table 8),42.0±2.0
same,VP (wet wt),"[6]; 0.1 mg TP once daily for 3 days (Table 8), ventral prostate",35.3±2.1
same,%SV growth,[6]; [13],563.8%
same,%VP growth,[6]; [13],337.0%
same,%SV growth,[6]; [14],616.1%
same,%VP growth,[6]; [14],415.9%
same,SV (wet wt),[6]; [14],45.9±1.9
same,VP (wet wt),"[6]; 0.3 mg TP once daily for 3 days, ventral prostate",43.6±1.1
same,%SV growth,[6]; 1 mg TP once daily for 3 days,684.6%
same,%VP growth,[6]; 1 mg TP once daily for 3 days,427.4%
same,SV (wet wt),[6]; 1 mg TP once daily for 3 days,51.0±5.4
same,VP (wet wt),"[6]; 1 mg TP once daily for 3 days, ventral prostate",44.8±3.7
same,SV wt (% of TP (0.1) control),[6]; TP (0.1) alone (Table 9),100%
same,VP wt (% of TP (0.1) control),[6]; TP (0.1) alone (Table 9),100%
same,SV (wet wt),"[6]; TP (0.1) alone (Table 9), 3 days",33.6±4.0
same,VP (wet wt),"[6]; TP (0.1) alone (Table 9), 3 days, ventral prostate",25.5±1.2
same,EC50 (increase in organ wet weights),"[6]; immature castrated rats, dosing for 3 days, VP and SV",~0.03 mg
"CC1=CC(C)(C)Nc2cc3c(cc21)c(C(F)(F)F)cc(=O)n3C [Compound 261, 1,2-Dihydro-2,2,4,9-tetramethyl-6-trifluoromethyl-8-pyridono[5,6-g]quinoline]",effect on testosterone-mediated increases in the weights of VP and SV,[6]; administered simultaneously with 0.1 mg of TP,exhibited AR antagonist activity by suppressing the testosterone-mediated increases in the weights of the VP and SV
